{"source": "patent US11246818B2", "about": "“Peptides and compositions for use in cosmetics” (LIPOTRUE, S.L., priority 2017, dated 2022)", "key": {"HEKa cells": {"test_system": "HEKa cells", "test": "Modulation of the expression of antioxidant genes (RTqPCR)", "format": "cell-based, human", "settings": "0.05 mg/mL, 24 hours", "from_the_text": "Changes in gene expression levels are represented as a positive or negative fold-change with regard to the basal control (untreated cells). Bars from top to bottom in the y-axis refer to: CYP2R1 (Vitamin D 25-hydroxylase), NFE2L2 (Nuclear factor-like 2), HMOX1 (Heme oxygenase-1), GSTP1 (Glutathione S-transferase P), GSS (Glutathione synthetase), GPX1 (Glutathione peroxidase) and TRX (Thioredoxin). The x-axis refers to fold change versus or with regard to the basal control.\nBriefly, HEKa cells were seeded in duplicate in 6-well plates at a density of 4×10^5 cells/well and maintained at standard culture conditions (37° C., 95% humidity, 5% CO2) for 24 hours. Then, cells were treated with non-cytotoxic concentrations of Ac-SEQ ID NO: 1-NH2 (0.05 mg/mL) for an additional 24 hours.\nUntreated cells were used as basal control. Cells were then lysed for RNA extraction with a RNA purification commercial kit following manufacturer instructions (RNeasy mini kit; Qiagen; Netherlands). RNA was then quantified by nanodrop, adjusted in concentration and processed for retrotranscription to cDNA using a commercially available kit (High-Capacity cDNA Reverse Transcription kit; Thermofisher Scientific, USA). Resulting cDNA was used to perform a RTqPCR (Real Time Quantitative Polymerase Chain Reaction) using Taqman technology and a panel of probes designed to target specific genes related to melanogenesis and HEMn-HEKa and HEMn-HDFa communication."}, "AhR": {"test_system": "AhR", "test": "AhR immunostaining on human skin explants exposed to pollutants", "settings": "composition of Example 8 applied topically, versus pollutants without peptide", "experimental": "(§1) The protection efficacy of peptide Ac-SEQ ID NO: 1-NH2 against pollution aggression on human living explants was assessed by observation of the general morphology, immunostaining of AhR and HO-1 (both are known markers of oxidative stress as they have been related to anti-oxidative response) (Esser C., Bargen I., Weighardt H., Haarmann-Stemmann T., Krutmann J., Functions of the aryl hydrocarbon receptor in the skin, Semin Immunopathol (2013) 35:677-691; Kohen R., Nyska A., Oxidation of Biological Systems: Oxidative Stress Phenomena, Antioxidants, Redox Reactions, and Methods for Their Quantification, Toxicologic Pathology (2002) vol 30, no 6, 620-650).\n(§2) Briefly, human skin explants from a person were put in culture under controlled conditions. 21 skin explants of an average diameter of 11 mm (±1 mm) were prepared and kept in survival in BEM culture medium at 37° C. in a humid, 5% CO2 atmosphere. The explants were distributed in 5 batches: explant control (Time=0), control batch, explants treated with the above-mentioned peptide, explants treated with pollutant and explants treated with pollutant and with the above-mentioned peptide. A composition containing Ac-SEQ ID NO: 1-NH2 in accordance with Example 8 was prepared and it was topically applied on days 0, 1, 3 and 4. […] Finally, image analyses and quantification were performed using Cell^D software (Olympus, Tokyo, Japan)."}, "[1]": {"test_system": "Primary human epidermal keratinocytes", "test": "Protection against glycation induced by heavy metals (Advanced Glycation End products, competitive ELISA)", "format": "cell-based", "settings": "all concentrations tested (0.01, 0.05, 0.1 mg/ml), 48 hours", "experimental": "Primary human epidermal keratinocytes were seeded in 96-well plates in standard culture medium and, 24 hours later, subjected to a simultaneous treatment with heavy metals (containing a mixture of Fe, Pb and Cr) and peptide Ac-SEQ ID NO: 1-NH2 for 48 hours. Levels of Advance Glycation End (AGE) products were measured by means of a competitive ELISA assay with absorbance at 450 nm."}, "[2]": {"test_system": "Primary human epidermal keratinocytes", "test": "Protection against lipoxidation induced by synthetic smoke (intracellular MDA)", "format": "cell-based", "settings": "synthetic smoke 48 h", "experimental": "(§3) Primary human epidermal keratinocytes were seeded in 96-well plates in standard culture medium and, 24 hours later, subjected to a simultaneous treatment with synthetic smoke containing selected compounds from the particle phase (for example, cadmium and nicotine) and vapour phase (for example, formaldehyde (hereinafter, FA) and ethyl carbamate) of tobacco smoke and the analysed compound (Ac-SEQ ID NO: 1-NH2) for 48 h.\nIn addition, after treatment, lipoxidation was analysed by means of the levels of intracellular MDA, which were measured by the reaction between MDA and N-methyl-2-phenylindole (hereinafter, NMPI) rendering a stable blue chromophore with an absorption peak at 586 nm."}, "HO-1": {"test_system": "HO-1", "test": "HO-1 immunostaining on human skin explants", "experimental": "as §1, §2"}, "[3]": {"test_system": "Primary human epidermal keratinocytes", "test": "Protection against DNA oxidation induced by synthetic smoke (8-OHdG, competitive ELISA)", "format": "cell-based", "settings": "synthetic smoke 48 h", "experimental": "as §3\nAfter treatment, cells were lysed and DNA oxidation on cell homogenates was analysed measuring levels of 8-OHdG by means of a competitive ELISA assay with absorbance at 450 nm."}, "[4]": {"test": "Trolox Equivalent Antioxidant Capacity (TEAC), ABTS Decolorization Assay", "format": "biochemical", "experimental": "As positive controls of the assay, ascorbic acid 2-glucoside (hereinafter, AA-2G) and magnesium ascorbyl phosphate (hereinafter, MAP) were tested.\nTEAC assay was used in this case. Said assay measures the antioxidant capacity of a given substance, as compared to the standard, Trolox, an analogue of Vitamin E.\nAntioxidant capacity was measured using the ABTS Decolorization Assay. In this assay, the pre-formed radical monocation of 2,2′-azinobis-(3-ethylbenzothiazoline-6-sulfonic acid) (ABTS*+) was generated by oxidation of ABTS with potassium persulfate and was reduced in the presence of antioxidants (Ac-SEQ ID NO: 1-NH2, Ac-SEQ ID NO: 2-NH2, Ac-SEQ ID NO: 3-NH2 or Ferulic acid-SEQ ID NO: 2-NH2). The ABTS.+ has a blue-green color, with maximum absorptions at 650, 734 and 820 nm. Antioxidants in the sample reduce ABTS.+ suppressing this color production to a degree that is proportional to their concentrations and antioxidant capacity. Quantification of absorbance was conducted at 734 nm using a Polarstar Omega equipment (BMG Labtech)."}, "[5]": {"settings": "lower tested concentration (0.01 mg/ml)"}, "[6]": {"settings": "other two tested concentrations (0.05, 0.1 mg/ml)"}}, "note": "Residues, ends and D or L forms follow the SMILES beside them.", "data": [{"smiles": "CC(=O)N[C@@H](CC(=O)O)C(=O)N[C@@H](Cc1ccc(O)cc1)C(=O)N[C@@H](CCCCN)C(=O)N[C@H](C(N)=O)C(C)C", "note": "[Ac-SEQ ID NO: 1-NH2, Ac-Asp-Tyr-Lys-Val-NH2] (Ac-DYKV-NH2)", "values": [{"measurement": "CYP2R1 gene expression, fold change versus basal control", "setting": "HEKa cells", "result": 1.44, "unit": "fold change"}, {"measurement": "GPX1 gene expression, fold change versus basal control", "setting": "HEKa cells", "result": 1.22, "unit": "fold change"}, {"measurement": "GSS gene expression, fold change versus basal control", "setting": "HEKa cells", "result": 1.10, "unit": "fold change"}, {"measurement": "GSTP1 gene expression, fold change versus basal control", "setting": "HEKa cells", "result": 1.13, "unit": "fold change"}, {"measurement": "HMOX1 gene expression, fold change versus basal control", "setting": "HEKa cells", "result": 1.48, "unit": "fold change"}, {"measurement": "NFE2L2 gene expression, fold change versus basal control", "setting": "HEKa cells", "result": 1.23, "unit": "fold change"}, {"measurement": "TRX gene expression, fold change versus basal control", "setting": "HEKa cells", "result": 1.34, "unit": "fold change"}, {"measurement": "decrease in AhR (epidermal surface occupied)", "setting": "AhR", "result": 16, "unit": "%"}, {"measurement": "quantity of advanced glycation end-products", "setting": "[1]", "result": "statistically significant decrease"}, {"measurement": "lipoxidation (MDA)", "setting": "[2]; [5]", "result": "slight decrease (non-statistically significant)"}, {"measurement": "lipoxidation (MDA)", "setting": "[2]; [6]", "result": "higher, statistically significant, effect"}, {"measurement": "decrease in HO-1 (epidermal surface occupied)", "setting": "HO-1; composition of Example 8 applied topically, exposed to pollutants, versus pollutants without peptide", "result": 23, "unit": "%"}, {"measurement": "increase of levels of HO-1", "setting": "HO-1; peptide in a final formulation, without exposure to pollutants, versus untreated and unexposed explants", "result": 69, "unit": "%"}, {"measurement": "protection of DNA oxidation", "setting": "[3]; 0.1 mg/ml", "result": "almost complete inhibition of the effects of synthetic smoke"}, {"measurement": "DNA oxidation (8-OHdG)", "setting": "[3]; [5]", "result": "slight decrease (non-statistically significant)"}, {"measurement": "DNA oxidation (8-OHdG)", "setting": "[3]; [6]", "result": "higher, statistically significant, effect"}, {"measurement": "trolox equivalents", "setting": "[4]; 0.01 mg/mL", "result": 15, "unit": "µM"}, {"measurement": "trolox equivalents", "setting": "[4]; 0.05 mg/mL", "result": 24, "unit": "µM"}, {"measurement": "trolox equivalents", "setting": "[4]; 0.1 mg/mL", "result": 94, "unit": "µM"}]}]}
